Data reported in article PMC7649837, “Protein–fragment complex structures derived by NMR molecular replacement” (RSC Medicinal Chemistry, 2020).

The compounds below were run against PIN1 (Homo sapiens, UniProt Q13526) (assay: NMR methyl chemical shift perturbation titration; intermolecular NOEs and NMR2 complex structure).
Type: binding

PIN1, sequence (Q13526 whole entry): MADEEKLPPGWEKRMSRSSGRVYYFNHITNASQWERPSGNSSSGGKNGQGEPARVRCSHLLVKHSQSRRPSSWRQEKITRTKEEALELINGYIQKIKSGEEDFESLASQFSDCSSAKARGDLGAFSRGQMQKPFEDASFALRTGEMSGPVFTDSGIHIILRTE

SMILES	Kd [µM]
Cc1nc(-c2cccc(Cl)c2)[nH]c1C(=O)O [compound 2]	670
Cc1cccc(-c2nc(C(=O)O)c(C)[nH]2)c1 [compound 1]	260
Cc1nc(-c2cccc(C(F)(F)F)c2)[nH]c1C(=O)O [compound 3]	6700
